Test results as given in patent US10179774B2, “Synthesis of chirally purified substituted benzothiazole diamines” (priority 2007, dated 2019).

Columns and labels:
dogs = settings: single oral dose, 'and above'; cited from earlier work
humans = settings: cited from earlier work
rodents [1] = settings: single oral dose, 'and above'; cited from earlier work
rodents [2] = tested on: rodents
monkeys = settings: single oral dose; cited from earlier work

SMILES: CCCNC1CCc2nc(N)sc2C1 (stereo not shown) [pramipexole]
- dose at which vomiting occurred (dogs): ≥ 0.7 µg/kg
- initial single dose not tolerated (humans; human subjects, initial single dose): greater than 0.20 mg
- dose shown to cause somnolence (humans; humans, 'as low as'): 1.5 mg
- doses at which death occurred (rodents [1]): 70 to 105 mg/kg
- equivalent human dose of the rodent lethal dose (rodents [2]; human equivalent of 70-105 mg/kg in rodents): 7 to 12 mg/kg
- equivalent human dose of the rodent lethal dose for a 70 kg individual (rodents [2]; rodents, in vivo): 500 to 850 mg
- dose at which major excitation was displayed (monkeys): 3.5 mg/kg
